According to publication PMC11480411, “Mucosal sugars delineate pyrazine vs pyrazinone autoinducer signaling in Klebsiella oxytoca” (Nature Communications, 2024):
Values joined by “and” are separate entries in the source; they are usually repeats but may differ in a detail not shown here. Equal entries are not always repeated.

Key:
Test in all cases: PRESTO-Tango GPCR screen and dose-response
Format in all cases: cell-based
[1] = target: T1, HRH2 (Homo sapiens, UniProt P25021); details: for HRH2 dose-response raw reporter signal (Fig. 5b source data): replicate wells
T1 construct: expressed in transfected cells; host or cells: HTLA cells (HEK293 line stably expressing β-arrestin-TEV and tTA-Luciferase)
Method in brief: (§1)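 β-Arrestin recruitment Tango format: HTLA cells, PEI transfection of receptor-Tango construct, 16-24 h; test compound 100 μM final, 20 h; Bright-Glo luminescence; RLU/PBS control RLU = fold activation. Dose-response curves run from 10^−4 M to 10^−15 M.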

[2] = target: T2, HRH1 (Homo sapiens, UniProt P35367); details: for HRH1 dose-response raw reporter signal (Fig. 5b source data): replicate wells
T2 construct: expressed in transfected cells; host or cells: HTLA cells (HEK293 line stably expressing β-arrestin-TEV and tTA-Luciferase)
Method in brief: as §1

[3] = target: T3, HRH3 (Homo sapiens, UniProt Q9Y5N1); details: for HRH3 dose-response raw reporter signal (Fig. 5b source data): replicate wells
T3 construct: expressed in transfected cells; host or cells: HTLA cells (HEK293 line stably expressing β-arrestin-TEV and tTA-Luciferase)
Method in brief: as §1

T2 sequence (P35367 whole entry): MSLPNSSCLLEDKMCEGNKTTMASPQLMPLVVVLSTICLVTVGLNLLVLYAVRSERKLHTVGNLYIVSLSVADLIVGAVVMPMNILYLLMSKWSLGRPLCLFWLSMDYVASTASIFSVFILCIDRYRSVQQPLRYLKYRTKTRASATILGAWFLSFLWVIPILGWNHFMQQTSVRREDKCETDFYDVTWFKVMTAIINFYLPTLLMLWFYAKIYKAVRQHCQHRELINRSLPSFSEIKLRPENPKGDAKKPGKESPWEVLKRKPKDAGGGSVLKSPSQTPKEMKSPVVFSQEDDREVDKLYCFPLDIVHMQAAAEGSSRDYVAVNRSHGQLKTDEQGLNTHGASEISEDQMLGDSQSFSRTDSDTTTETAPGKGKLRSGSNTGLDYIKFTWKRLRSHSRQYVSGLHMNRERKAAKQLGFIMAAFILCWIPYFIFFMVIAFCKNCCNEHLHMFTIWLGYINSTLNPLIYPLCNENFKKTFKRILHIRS
T1 sequence (P25021 whole entry): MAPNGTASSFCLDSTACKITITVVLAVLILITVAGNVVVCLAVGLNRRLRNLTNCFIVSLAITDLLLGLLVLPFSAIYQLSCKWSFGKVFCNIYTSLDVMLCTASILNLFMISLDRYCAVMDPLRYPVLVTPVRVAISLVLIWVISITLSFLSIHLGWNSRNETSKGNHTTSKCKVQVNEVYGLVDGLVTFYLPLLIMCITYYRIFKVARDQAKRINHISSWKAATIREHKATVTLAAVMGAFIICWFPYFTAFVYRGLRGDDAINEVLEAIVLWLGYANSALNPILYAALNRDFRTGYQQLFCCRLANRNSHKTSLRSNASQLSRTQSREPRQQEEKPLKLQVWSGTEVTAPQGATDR
T3 sequence (Q9Y5N1 whole entry): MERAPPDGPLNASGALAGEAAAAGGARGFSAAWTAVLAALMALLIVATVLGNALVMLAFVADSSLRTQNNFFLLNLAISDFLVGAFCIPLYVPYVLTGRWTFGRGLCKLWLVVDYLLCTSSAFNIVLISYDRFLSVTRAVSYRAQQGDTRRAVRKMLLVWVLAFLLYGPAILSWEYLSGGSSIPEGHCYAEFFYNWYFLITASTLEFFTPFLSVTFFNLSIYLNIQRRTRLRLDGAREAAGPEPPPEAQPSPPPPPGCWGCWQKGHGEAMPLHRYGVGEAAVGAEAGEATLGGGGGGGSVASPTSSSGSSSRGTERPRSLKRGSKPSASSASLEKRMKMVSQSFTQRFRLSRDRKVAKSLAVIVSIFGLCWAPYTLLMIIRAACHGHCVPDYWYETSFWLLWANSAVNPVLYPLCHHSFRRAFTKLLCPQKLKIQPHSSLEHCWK

GPCR activation (heatmap value) ([1]; HRH2, 100 µM): 0.6697 | HRH2 dose-response raw reporter signal (Fig. 5b source data) ([1]; Log(10)Conc (M) -4): 77 and 94 and 47 | HRH2 dose-response raw reporter signal (Fig. 5b source data) ([1]; Log(10)Conc (M) -5): 50 and 38 and 83 | HRH2 dose-response raw reporter signal (Fig. 5b source data) ([1]; Log(10)Conc (M) -6): 68 and 53 and 83 | HRH2 dose-response raw reporter signal (Fig. 5b source data) ([1]; Log(10)Conc (M) -7): 59 and 65 and 91 | HRH2 dose-response raw reporter signal (Fig. 5b source data) ([1]; Log(10)Conc (M) -8): 56 and 50 and 59 | HRH2 dose-response raw reporter signal (Fig. 5b source data) ([1]; Log(10)Conc (M) -9): 44 (2×) and 59 | HRH2 dose-response raw reporter signal (Fig. 5b source data) ([1]; Log(10)Conc (M) -10): 53 and 62 (2×) | HRH2 dose-response raw reporter signal (Fig. 5b source data) ([1]; Log(10)Conc (M) -11): 29 and 53 and 74 | HRH2 dose-response raw reporter signal (Fig. 5b source data) ([1]; Log(10)Conc (M) -12): 50 and 65 and 53 | HRH2 dose-response raw reporter signal (Fig. 5b source data) ([1]; Log(10)Conc (M) -13): 53 and 27 and 91 | HRH2 dose-response raw reporter signal (Fig. 5b source data) ([1]; Log(10)Conc (M) -14): 41 and 77 and 68 | HRH2 dose-response raw reporter signal (Fig. 5b source data) ([1]; Log(10)Conc (M) -15): 47 and 29 and 100 | GPCR activation (heatmap value) ([2]; HRH1, 100 µM): 0.1843 | HRH1 dose-response raw reporter signal (Fig. 5b source data) ([2]; Log(10)Conc (M) -4): 49786 and 49898 | HRH1 dose-response raw reporter signal (Fig. 5b source data) ([2]; Log(10)Conc (M) -5): 48910 and 46012 | HRH1 dose-response raw reporter signal (Fig. 5b source data) ([2]; Log(10)Conc (M) -6): 48701 and 46228 | HRH1 dose-response raw reporter signal (Fig. 5b source data) ([2]; Log(10)Conc (M) -7): 46626 and 44830 | HRH1 dose-response raw reporter signal (Fig. 5b source data) ([2]; Log(10)Conc (M) -8): 47613 and 46402 | HRH1 dose-response raw reporter signal (Fig. 5b source data) ([2]; Log(10)Conc (M) -9): 46045 and 44597 | HRH1 dose-response raw reporter signal (Fig. 5b source data) ([2]; Log(10)Conc (M) -10): 46658 and 45508 | HRH1 dose-response raw reporter signal (Fig. 5b source data) ([2]; Log(10)Conc (M) -11): 45821 and 45927 | HRH1 dose-response raw reporter signal (Fig. 5b source data) ([2]; Log(10)Conc (M) -12): 46189 and 46705 | HRH1 dose-response raw reporter signal (Fig. 5b source data) ([2]; Log(10)Conc (M) -13): 47852 and 47304 | HRH1 dose-response raw reporter signal (Fig. 5b source data) ([2]; Log(10)Conc (M) -14): 47480 and 47139 | HRH1 dose-response raw reporter signal (Fig. 5b source data) ([2]; Log(10)Conc (M) -15): 43822 and 41222 | GPCR activation (heatmap value) ([3]; HRH3, 100 µM): -0.5013 | HRH3 dose-response raw reporter signal (Fig. 5b source data) ([3]; Log(10)Conc (M) -4): 262 and 192 and 404 | HRH3 dose-response raw reporter signal (Fig. 5b source data) ([3]; Log(10)Conc (M) -5): 245 and 283 and 383 | HRH3 dose-response raw reporter signal (Fig. 5b source data) ([3]; Log(10)Conc (M) -6): 192 and 292 and 463 | HRH3 dose-response raw reporter signal (Fig. 5b source data) ([3]; Log(10)Conc (M) -7): 286 and 312 and 310 | HRH3 dose-response raw reporter signal (Fig. 5b source data) ([3]; Log(10)Conc (M) -8): 174 and 312 and 371 | HRH3 dose-response raw reporter signal (Fig. 5b source data) ([3]; Log(10)Conc (M) -9): 227 and 248 and 307 | HRH3 dose-response raw reporter signal (Fig. 5b source data) ([3]; Log(10)Conc (M) -10): 124 and 254 and 251 | HRH3 dose-response raw reporter signal (Fig. 5b source data) ([3]; Log(10)Conc (M) -11): 177 and 189 and 218
SMILES: CC(C)Cc1ncc(CCCCNC(=N)N)[nH]c1=O [3-Homo]
